Where a SMILES comes first, the peptide text is derived from it. Bridges are numbered along the chain shown (N, C = ends). [ ]: non-standard residue; d: D form. Tle = CC(C)(C)[C@H](N)C(=O)O; dDab = NCC[C@@H](N)C(=O)O; NMeA = CN[C@@H](C)C(=O)O; Dab = NCC[C@H](N)C(=O)O; dAze = O=C(O)[C@H]1CCN1; Dap = NC[C@H](N)C(=O)O
How the values were obtained:
Format in all cases: cell-based
[1] = system: Klebsiella pneumoniae ATCC 13883; settings: ATCC 13883
Procedure: (§1) Stock solutions were kept at +4° C., light protected.
(§2) The selective antimicrobial activities of the peptides were determined in 96-well plates (Greiner, polystyrene) by the standard NCCLS broth microdilution method (National Committee for Clinical Laboratory Standards 1993. Methods for dilution antimicrobial susceptibility tests for bacteria that grow aerobically, 3rd ed. Approved standard M7-A6; National Committee for Clinical laboratory standards, Wayne, Pa.) with slight modifications. Inocula of the microorganisms were diluted into Mueller-Hinton II (MH, cation adjusted) broth and compared with a 0.5 McFarland standard to give appr. 10^6 colony forming units (CFU)/mL. Aliquots (90 μl) of inoculate were added to 10 μl of MH broth+P-80 (Polysorbate 80, 0.002% final concentration) containing the peptide in serial two-fold dilutions. The following microorganisms were used to determine antibiotic selectivity of the peptides: Escherichia coli ATCC 25922, Klebsiella pneumoniae ATCC 13883 and Acinetobacter baumannii DSM 30008.

[2] = system: Escherichia coli ATCC 25922; settings: ATCC 25922
Procedure: as §1, §2

[3] = system: Acinetobacter baumannii DSM 30008; settings: DSM 30008
Procedure: as §1, §2

[4] = system: human red blood cells (hRBC); assay: Hemolysis of human red blood cells; settings: red cells of human, 1 h, 100
Procedure: as §1
Percent hemolysis was calculated as follows: (OD540peptide/OD540H2O)×100%.

Klebsiella pneumoniae ATCC 13883 MIC [1] [µg/mL]	Escherichia coli ATCC 25922 MIC [2] [µg/mL]	Acinetobacter baumannii DSM 30008 MIC [3] [µg/mL]	SMILES	Hemolysis at 100 μg/mL [4] [%]
0.25	0.5	1	CC(C)[C@@H]1NC(=O)[C@@H]2CCCN2C(=O)[C@H]2CCN2C(=O)[C@H]([C@@H](C)O)NC(=O)[C@@H]2CC(=O)NCC[C@H](NC1=O)C(=O)N[C@@H](Cc1ccc(O)cc1)C(=O)N[C@@H](CCN)C(=O)N[C@@H](CN)C(=O)N[C@H](CCN)C(=O)N[C@@H](CCN)C(=O)N[C@@H](Cc1c[nH]c3ccccc13)C(=O)N[C@@H](CCN)C(=O)N[C@@H](C(C)(C)C)C(=O)N2 [Example 12, cyclo(-Val-Dab-Tyr-Dab-Dap-^DDab-Dab-Trp-Dab-tBuGly-Asp-Thr-^DAzt-Pro-)] (cyclo(DT[dAze]PV[Dab]Y[Dab][Dap][dDab][Dab]W[Dab][Tle]); lactam 1-6)	4
0.5	0.25	1	CC(C)(C)[C@@H]1NC(=O)[C@H](CCN)NC(=O)[C@H](Cc2c[nH]c3ccccc23)NC(=O)[C@H](CCN)NC(=O)[C@@H](CCN)NC(=O)[C@H](CCCN)NC(=O)[C@H](CCCNC(=N)N)NC(=O)[C@H](Cc2ccc(O)cc2)NC(=O)[C@@H]2CCNC(=O)C[C@H](NC1=O)C(=O)N[C@@H](CO)C(=O)N1CCC[C@@H]1C(=O)N1CCC[C@H]1C(=O)N[C@@H](Cc1ccccc1)C(=O)N2 [Example 13, cyclo(-Phe-Dab-Tyr-Arg-Orn-^DDab-Dab-Trp-Dab-tBuGly-Asp-Ser-^DPro-Pro-)] (HELM PEPTIDE1{F.[Dab].Y.R.[Orn].[NCC[C@@H](N[*:1])C(=O)[*:2]].[Dab].W.[Dab].[CC(C)(C)[C@H](N[*:1])C(=O)[*:2]].D.S.[dP].P}$PEPTIDE1,PEPTIDE1,2:R3-11:R3|PEPTIDE1,PEPTIDE1,1:R1-14:R2$$$V2.0)	1
0.25	0.25	0.5	CC(C)(C)[C@@H]1NC(=O)[C@H](CCN)NC(=O)[C@H](Cc2c[nH]c3ccccc23)NC(=O)[C@H](CCN)NC(=O)[C@@H](CCN)NC(=O)[C@H](CCN)NC(=O)[C@H](CCN)NC(=O)[C@H](Cc2ccc(O)cc2)NC(=O)[C@@H]2CCNC(=O)C[C@H](NC1=O)C(=O)N[C@@H](CO)C(=O)N1CCC[C@@H]1C(=O)N1CCC[C@H]1C(=O)N[C@@H](Cc1c[nH]c3ccccc13)C(=O)N2 [Example 14, cyclo(-Trp-Dab-Tyr-Dab-Dab-^DDab-Dab-Trp-Dab-tBuGly-Asp-Ser-^DPro-Pro-)] (HELM PEPTIDE1{W.[Dab].Y.[Dab].[Dab].[NCC[C@@H](N[*:1])C(=O)[*:2]].[Dab].W.[Dab].[CC(C)(C)[C@H](N[*:1])C(=O)[*:2]].D.S.[dP].P}$PEPTIDE1,PEPTIDE1,2:R3-11:R3|PEPTIDE1,PEPTIDE1,1:R1-14:R2$$$V2.0)	2
0.25	0.25	0.5	CC(C)(C)[C@@H]1NC(=O)[C@H](CCN)NC(=O)[C@H](Cc2c[nH]c3ccccc23)NC(=O)[C@H](CCN)NC(=O)[C@H](CCN)NC(=O)[C@H](CCN)NC(=O)[C@H](CCN)NC(=O)[C@H](Cc2ccc(O)cc2)NC(=O)[C@@H]2CCNC(=O)C[C@H](NC1=O)C(=O)N[C@@H](CO)C(=O)N1CC[C@@H]1C(=O)N1CCC[C@H]1C(=O)N[C@@H](Cc1c[nH]c3ccccc13)C(=O)N2 [Example 15, cyclo(-Trp-Dab-Tyr-Dab-Dab-Dab-Dab-Trp-Dab-tBuGly-Asp-Ser-^DAzt-Pro-)] (HELM PEPTIDE1{D.S.[O=C([C@H]1CCN1[*:1])[*:2]].P.W.[Dab].Y.[Dab].[Dab].[Dab].[Dab].W.[Dab].[CC(C)(C)[C@H](N[*:1])C(=O)[*:2]]}$PEPTIDE1,PEPTIDE1,1:R3-6:R3|PEPTIDE1,PEPTIDE1,1:R1-14:R2$$$V2.0)	1
0.5	0.5	1	CC(C)[C@@H]1NC(=O)[C@@H]2CCCN2C(=O)[C@H]2CCCN2C(=O)[C@H](CO)NC(=O)[C@@H]2CC(=O)NCC[C@H](NC1=O)C(=O)N[C@@H](Cc1ccc(O)cc1)C(=O)N[C@@H](CCN)C(=O)N[C@@H](CCN)C(=O)N[C@H](CCN)C(=O)N[C@@H](CCN)C(=O)N[C@@H](Cc1c[nH]c3ccccc13)C(=O)N[C@@H](CCN)C(=O)N[C@@H](c1ccccc1)C(=O)N2 [Example 16, cyclo(-Val-Dab-Tyr-Dab-Dab-^DDab-Dab-Trp-Dab-Phg-Asp-Ser-^DPro-Pro-)] (HELM PEPTIDE1{V.[Dab].Y.[Dab].[Dab].[NCC[C@@H](N[*:1])C(=O)[*:2]].[Dab].W.[Dab].[Phg].D.S.[dP].P}$PEPTIDE1,PEPTIDE1,2:R3-11:R3|PEPTIDE1,PEPTIDE1,1:R1-14:R2$$$V2.0)	1
2	2	4	CC(C)[C@@H]1NC(=O)[C@@H]2CCCN2C(=O)[C@H]2CCCN2C(=O)[C@H](Cc2c[nH]cn2)NC(=O)[C@@H]2CC(=O)NCC[C@H](NC1=O)C(=O)N[C@@H](Cc1ccc(O)cc1)C(=O)N[C@@H](CCN)C(=O)N[C@@H]([C@@H](C)O)C(=O)N[C@@H](CCN)C(=O)N[C@@H](CCN)C(=O)N[C@@H](Cc1c[nH]c3ccccc13)C(=O)N[C@@H](CCN)C(=O)N[C@@H](C(C)(C)C)C(=O)N2 [Example 17, cyclo(-Val-Dab-Tyr-Dab-Thr-Dab-Dab-Trp-Dab-tBuGly-Asp-His-^DPro-Pro-)] (HELM PEPTIDE1{V.[Dab].Y.[Dab].T.[Dab].[Dab].W.[Dab].[CC(C)(C)[C@H](N[*:1])C(=O)[*:2]].D.H.[dP].P}$PEPTIDE1,PEPTIDE1,2:R3-11:R3|PEPTIDE1,PEPTIDE1,1:R1-14:R2$$$V2.0)	1

SMILES	Klebsiella pneumoniae ATCC 13883 MIC [1] [µg/mL]	Escherichia coli ATCC 25922 MIC [2] [µg/mL]	Acinetobacter baumannii DSM 30008 MIC [3] [µg/mL]	Hemolysis at 100 μg/mL [4] [%]
CC(C)[C@@H]1NC(=O)[C@H](C)N(C)C(=O)[C@H]2CCCN2C(=O)[C@H](CO)NC(=O)[C@@H]2CSSC[C@H](NC1=O)C(=O)N[C@@H](Cc1ccc(O)cc1)C(=O)N[C@@H](CCN)C(=O)N[C@@H](CN)C(=O)N[C@H](CCN)C(=O)N[C@@H](CCN)C(=O)N[C@@H](Cc1c[nH]c3ccccc13)C(=O)N[C@@H](CCN)C(=O)N[C@@H](C(C)(C)C)C(=O)N2 [Example 9, cyclo(-Val-Cys-Tyr-Dab-Dap-^DDab-Dab-Trp-Dab-tBuGly-Cys-Ser-^DPro-NMeAla-)] (cyclo(CS[dP][NMeA]VCY[Dab][Dap][dDab][Dab]W[Dab][Tle]); disulfide 1-6)	1	0.5	1	6
CC[C@H](C)[C@@H]1NC(=O)[C@@H]2CCCN2C(=O)[C@H]2CCCN2C(=O)[C@H](CO)NC(=O)[C@@H]2CSSC[C@H](NC1=O)C(=O)N[C@@H](Cc1ccc(O)cc1)C(=O)N[C@@H](CCN)C(=O)N[C@@H](CCCN)C(=O)N[C@H](CCN)C(=O)N[C@@H](CCN)C(=O)N[C@@H](Cc1c[nH]c3ccccc13)C(=O)N[C@@H](CCN)C(=O)N[C@@H](C(C)(C)C)C(=O)N2 [Example 10, cyclo(-Ile-Cys-Tyr-Dab-Orn-^DDab-Dab-Trp-Dab-tBuGly-Cys-Ser-^DPro-Pro-)] (HELM PEPTIDE1{I.C.Y.[Dab].[Orn].[NCC[C@@H](N[*:1])C(=O)[*:2]].[Dab].W.[Dab].[CC(C)(C)[C@H](N[*:1])C(=O)[*:2]].C.S.[dP].P}$PEPTIDE1,PEPTIDE1,2:R3-11:R3|PEPTIDE1,PEPTIDE1,1:R1-14:R2$$$V2.0)	0.25	1	1	1
CC[C@H](C)[C@@H]1NC(=O)[C@H](Cc2ccc(O)cc2)NC(=O)[C@H]2CCCN2C(=O)[C@H](CO)NC(=O)[C@@H]2CSSC[C@H](NC1=O)C(=O)N[C@@H](Cc1ccc(O)cc1)C(=O)N[C@@H](CCN)C(=O)N[C@@H](CCCN)C(=O)N[C@H](CCN)C(=O)N[C@@H](CCN)C(=O)N[C@@H](Cc1c[nH]c3ccccc13)C(=O)N[C@@H](CCN)C(=O)N[C@@H](C(C)(C)C)C(=O)N2 [Example 11, cyclo(-Ile-Cys-Tyr-Dab-Orn-^DDab-Dab-Trp-Dab-tBuGly-Cys-Ser-^DPro-Tyr-)] (HELM PEPTIDE1{C.S.[dP].Y.I.C.Y.[Dab].[Orn].[NCC[C@@H](N[*:1])C(=O)[*:2]].[Dab].W.[Dab].[CC(C)(C)[C@H](N[*:1])C(=O)[*:2]]}$PEPTIDE1,PEPTIDE1,1:R3-6:R3|PEPTIDE1,PEPTIDE1,1:R1-14:R2$$$V2.0)	0.5	2	1	1

From patent publication US10259847B2, “Beta-hairpin peptidomimetics” (POLYPHOR AG, priority 2014, dated 2019)
